Results published in patent publication US20170319563A1, “STEROID-FREE DISEASE MANAGEMENT” (Asana BioSciences, LLC, priority 2014, published 2017).
Read-outs that look alike come from different tables or passages of the source.

What was measured:
[1] = target: T1, CYP17 C17,20-lyase (Homo sapiens, UniProt P05093); assay: CYP17 lyase assay in human testicular microsomes; type: biochemical
T1 construct: These cells have intact testosterone synthesis pathway; host or cells: NCI-H295R human adrenocortical carcinoma cells
T1 sequence (P05093 1-508): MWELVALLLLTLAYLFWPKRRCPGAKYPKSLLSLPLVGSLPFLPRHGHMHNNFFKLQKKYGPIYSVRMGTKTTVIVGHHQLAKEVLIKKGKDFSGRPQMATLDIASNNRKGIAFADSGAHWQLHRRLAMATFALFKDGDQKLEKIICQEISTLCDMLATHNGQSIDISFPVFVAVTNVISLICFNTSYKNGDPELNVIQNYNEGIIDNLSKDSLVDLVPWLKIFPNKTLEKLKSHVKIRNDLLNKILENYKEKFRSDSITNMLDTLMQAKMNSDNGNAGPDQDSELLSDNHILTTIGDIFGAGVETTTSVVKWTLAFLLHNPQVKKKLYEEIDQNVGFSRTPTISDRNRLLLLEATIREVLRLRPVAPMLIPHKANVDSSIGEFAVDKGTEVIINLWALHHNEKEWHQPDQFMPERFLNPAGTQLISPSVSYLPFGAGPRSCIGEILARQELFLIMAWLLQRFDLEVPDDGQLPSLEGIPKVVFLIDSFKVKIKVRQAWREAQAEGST
From the text: ASN001 has one chiral center. The individual enantiomers of ASN001 are both potent and selective inhibitors of CYP17. […] Similar relative potency results for the racemate and enantiomers have also been obtained experimentally in rat testicular microsomes and human H295R adrenocortical carcinoma cells. In summary ASN001 and its individual enantiomers are all potent inhibitors of CYP17 activity and testosterone synthesis in biochemical and cellular functional assays.
(§1) General procedures for the in vitro and in vivo studies discussed above have been described previously in WO 2013/049559 (published in the US as United States Patent Application Publication No. US 2013/0085148; see e.g. Examples 84-88). The inhibitory effect of compounds on human CYP17 lyase activity in vitro in human testicular microsomes (CelsisIVT, US) was determined in a similar manner to the CYP17 lyase assay in rat testicular microsomes described previously as Example 84 in WO 2013/049559 (published in the US as United States Patent Application Publication No. US 2013/0085148), except that human testicular microsomes were used instead of rat testicular microsomes.

[2] = tested on: male SD rats; assay: Prostate and seminal vesicle weights after 14 days repeat oral administration; type: in vivo
Protocol: The effect of ASN001 and its individual enantiomers on prostate and seminal vesicle weights was evaluated after 14 days repeat oral administration in male SD rats. ASN001 caused a dose-dependent reduction of the prostate and seminal vesicle weights.
(In a prior test using ASN001 at 30 mg/kg once a day (QD) PO×14 days, not made in comparison to either enantiomer, but using the same general protocol, the reduction in prostate and seminal vesicle weights was “about 50%” and “about 60%” respectively. See Example 88 of WO 2013/049559.)
as §1

[3] = target: T1, CYP17 C17,20-lyase; assay: Cell-based CYP17 C17,20-lyase assay in H295R cells
Protocol: Cell-Based CYP17 C17,20-Lyase Assay
To test the inhibitory effect of compounds on CYP17 C17,20-lyase activity in cells, human adrenocortical carcinoma H295R cells (ATCC) were used. These cells have intact testosterone synthesis pathway and are ideal to study the effect of compounds on various enzymes involved in this pathway. The cell-based CYP17 C17,20-Lyase assay was conducted as described previously as Example 85 in WO 2013/049559 (published in the US as United States Patent Application Publication No. US 2013/0085148).

[4] = tested on: testosterone synthesis; assay: Cell-based functional assay: testosterone synthesis inhibition in H295R cells; parameters: species or system human; conditions: for EC50: Homo sapiens, NCI-H295R, H295R cells; for IC50 / testosterone/cortisol synthesis inhibition ratio: human adrenal NCI-H295R cells
Protocol: Cell-Based Functional Assay: Testosterone Synthesis Inhibition
To understand how the inhibition of CYP17 lyase impacts testosterone synthesis, testosterone levels were measured in H295R adrenocortical carcinoma cells. This assay was conducted as described previously as Example 86 in WO 2013/049559 (published in the US as United States Patent Application Publication No. US 2013/0085148).

[5] = tested on: cortisol synthesis; assay: Cell-based functional assay: cortisol synthesis inhibition in H295R cells; parameters: species or system human
Protocol: Cell-Based Functional Assay: Cortisol Synthesis Inhibition
The H295R cell based assay was used to examine effects on cortisol synthesis. The DetectX® Cortisol Immunoassay kit (Arbor Assays, Cat. No. K003-H1) measures Cortisol present in extracted dried fecal samples, serum, plasma and tissue culture media samples.
(§2) Standard Preparation • 1. Label seven test tubes as #1 through #7. • 2. Pipet 450 μL of Assay Buffer into tube #1 and 250 μL into tubes #2 to #7. • 3. The Cortisol stock solution contains an organic solvent. Pre-rinse the pipet tip several times to ensure accurate delivery. • 4. Carefully add 50 μL of the Cortisol stock solution to tube #1 and vortex completely. • 5. Take 250 μL of the Cortisol solution in tube #1 and add it to tube #2 and vortex completely. • 6. Repeat the serial dilutions for tubes #3 through #7. • 7. The concentration of Cortisol in tubes 1 through 7 will be 5,000, 2,500, 1,250, 625, 312.5, 156.25 and 78.125 pg/mL.
(§3) Assay Protocol • 1. Subculture H295R (Human Adreno Cortical Carcinoma cell line ATCC# CRL-2128) cells and seed 60,000 cells per well in a poly-d lysine plate and leave it overnight at 37° C. • 2. Add 50 μl of serially diluted compounds from a 5×plate. • 3. Incubate overnight at 37° C. (˜16 hours). • 4. Collect media/cell culture supernatant and dilute appropriately for Cortisol estimation (1:10 diluted with assay buffer). • 5. Pipet 50 μL of samples or standards into wells in the plate. • 6. Pipet 75 μL of Assay Buffer into the non-specific binding (NSB) wells. • 7. Pipet 50 μL of Assay Buffer into wells to act as maximum binding wells (B0 or 0 pg/mL). • 8. Add 25 μL of the DetectX® Cortisol Conjugate to each well using a repeater pipet. • 9. Add 25 μL of the DetectX® Cortisol Antibody to each well, except the NSB wells, using a repeater pipet. • 10. Gently tap the sides of the plate to ensure adequate mixing of the reagents. Cover the plate with the plate sealer and shake at room temperature for 1 hour. If the plate is not shaken signals bound will be approximately 45% lower. • 11. Aspirate the plate and wash each well 4 times with 300 μL wash buffer. Tap the plate dry on clean absorbent towels. • 12. Add 100 μL of the TMB Substrate to each well, using a repeater pipet. • 13. Incubate the plate at room temperature for 30 minutes without shaking. • 14. Add 50 μL of the Stop Solution to each well, using a repeater or a multichannel pipet. • 15. Read the optical density generated from each well in a plate reader capable of reading at 450 nm. • 16. Use the plate reader's built-in 4PLC software capabilities to calculate Cortisol concentration for each sample.

[6] = tested on: corticosterone synthesis; assay: Cell-based functional assay: corticosterone synthesis inhibition in H295R cells; parameters: species or system human
Protocol: Cell-Based Functional Assay: Corticosterone Synthesis Inhibition
The H295R cell based assay was used to examine effects on corticosterone synthesis. The DetectX® Corticosterone Immunoassay kit (Arbor Assays, Cat. No. K014-H1) measures Corticosterone present in extracted dried fecal samples, serum, plasma and tissue culture media samples.
as §2, with “corticosterone” for “Cortisol”
as §3, with “for Corticosterone” for “for Cortisol”, “(1:10 Diluted” for “(1:10 diluted”, “wells (Bo” for “wells (B0”, “DetectX® Corticosterone” for “DetectX® Cortisol”, “calculate Corticosterone” for “calculate Cortisol”

[7] = Food effect and bioavailability in rats; type: in vivo, rat
From the text: Accordingly, the dosage forms, regimens and methods of administration described herein may be accomplished on humans in the fed or fasted state and with food or without. Thus, the methods described herein could include administration of a therapeutically effective amount of ASN001, as a substantially pure enantiomer, as a mixture or as a racemic mixture, which is “food indifferent” which means with or without food to a patient in a fed or fasted state. Examples include, without limitation, with food, to a patient who has consumed food in the last two hours, without food, and/or to a patient who has not eaten in the last two hours.

[8] = tested on: male SD rats; conditions: prior test, 30 mg/kg QD PO x 14 days; Example 88 of WO 2013/049559; cited from earlier work
[9] = H295R cells, average of multiple runs, read-out: CYP17 C17,20-lyase average IC50
[10] = human adrenal NCI-H295R cells, read-out: 17,20-Lyase IC50
[11] = Homo sapiens, NCI-H295R, H295R cells, read-out: cortisol synthesis inhibition IC50
[12] = human adrenal NCI-H295R cells, read-out: cortisol synthesis IC50
[13] = Homo sapiens, NCI-H295R, H295R cells, read-out: corticosterone synthesis inhibition IC50
[14] = human adrenal NCI-H295R cells, read-out: corticosterone synthesis IC50

IC50 [1] | SMILES | reduction in prostate weight ([2]; 10 mg/kg BID PO x 14 days) | reduction in seminal vesicle weight ([2]; 10 mg/kg BID PO x 14 days) | IC50 [3, 9] | IC50 [3, 10] | EC50 [4] | IC50 [4] | testosterone/cortisol synthesis inhibition ratio [4] | IC50 [5, 11] | IC50 [5, 12] | IC50 [6, 13] | IC50 [6, 14] | other results
15 nM | CC(O)(c1ccncc1)c1cnc(-c2ccc(F)cc2)s1 (racemic) [ASN001, 1-(2-(4-fluorophenyl)thiazol-5-yl)-1-(pyridin-4-yl)ethanol] | 24% | 48% | 50 nM | 50 nM | 54 nM | 54 nM | 6.5 | 346 nM | 350 nM | 2800 nM | 2800 nM | reduction in prostate weight ([2]; 30 mg/kg QD PO x 14 days): 29%; reduction in seminal vesicle weight ([2]; 30 mg/kg QD PO x 14 days): 43%; difference between C17,20-lyase inhibition and cortisol biosynthesis inhibition ([3]; adrenal NCI-H295R cells): ~7 fold; bioavailability ([7]; rat and other non-clinical species): quite high; food effect ([7]; rats): does not exhibit a food effect; reduction in prostate weight [8]: about 50%; reduction in seminal vesicle weight [8]: about 60%
 | C[C@]12CC[C@H](O)CC1=CC[C@@H]1[C@@H]2CC[C@]2(C)C(c3cccnc3)=CC[C@@H]12 [Abiraterone, abiraterone, reference compound] |  |  | 2.8 nM | 3 nM | 5 nM | 5 nM | <0.2 | 0.68 nM | < 1 nM | 65 nM | 65 nM | 
63 nM | CC(O)(c1ccncc1)c1cnc(-c2ccc(F)cc2)s1 (single isomer, unassigned; (+)) [(+)ASN001] |  |  |  |  |  |  |  |  |  |  |  | 
8 nM | CC(O)(c1ccncc1)c1cnc(-c2ccc(F)cc2)s1 (single isomer, unassigned; (-)) [(−)ASN001] | 30% | 31% |  |  |  |  |  |  |  |  |  | reduction in prostate weight ([2]; 15 mg/kg QD PO x 14 days): 17%; reduction in seminal vesicle weight ([2]; 15 mg/kg QD PO x 14 days): 27%
